Experimental data published in PubChem BioAssay AID1963974 (Molecular Pharmacology Branch, DTP, NCI, 2024).
Where “and” joins values, the source holds several entries; their conditions need not be identical. Equal entries are not always repeated.

Tested on: 648629-189-R-J1-PDC spheroids with HUVEC/MSC, viability
Test: Anticancer human tumor 648629-189-R-J1-PDC patient-derived bladder carcinoma cell line growth inhibition [PI3K]
Details: for viability, T/C: stronger effect = lower value; for IC50: curve of compound
From the text: Combinatorial screen of targeted agents with the PI3K inhibitors inavolisib, alpelisib, duvelisib, and copanlisib in multi-cell type tumor spheroids
A high-throughput screen of multi-cell type tumor spheroids was designed to identify active combinations of targeted small molecules and PI3K pathway inhibitors. Complex spheroids include a stromal component modeled by human endothelial cells (HUVEC) and fibroblasts modeled by human mesenchymal stem cells (MSCs). The concentration ranges selected for each drug and investigational agent were based upon clinically achievable concentrations if the clinical Cmax of the agent was known.
Compounds. The drugs and investigational agents: inavolisib (NSC800729), alpelisib (NSC765974), duvelisib (NSC772469), copanlisib (NSC816437), ipatasertib (NSC767898), afuresertib (NSC778305), talazoparib (NSC767125), sapanisertib (NSC764658), selumetinib (NSC741078), tovorafenib (DAY101, NSC766906), vemurafenib (NSC761431), ravoxertinib (NSC781343), sotorasib (NSC818433), MRTX1133 (NSC 836407), abemaciclib (NSC 768073), palbociclib (NSC758247), venetoclax (NSC 766270), SY5609 (NSC837396), enzalutamide (NSC755605), and darolutamide (NSC825331), were obtained from the National Cancer Institute (NCI) Developmental Therapeutics Program Chemical Repository. The FDA-approved anticancer drug set is available from the NCI Developmental Therapeutics Program. […] The stock solutions were prepared in dimethyl sulfoxide (DMSO, Sigma-Aldrich, St. Louis, MO, cat. D2650) at 800-fold the tested concentration and stored at -70 degrees C prior to their use. All drugs and investigational agents were tested over a range starting from a high concentration at or near the clinical Cmax and decreasing in half-log increments. If the clinical Cmax for an agent had not been determined, the highest concentration tested was 10 microM.
Cell Culture. All cells were maintained in an incubator at 37 degrees C and 5% CO2 with 95% humidity. The PDC lines were cultured according to standard operating procedures established by the NCI PDMR (https://pdmr.cancer.gov/sops/default.htm). All PDCs were thawed and cultured in Matrigel-coated flasks prepared with a working solution of 1X Ham's F-12 nutrient mix, without supplementation (Invitrogen, Waltham, MA, cat. 11765054), 100 U/mL penicillin-streptomycin (Invitrogen, cat. 15140122), and 2.5% Matrigel (Corning Inc., Corning, NY, cat. 354248) for the first three passages. The 354836-022-R-J1-PDC, 475296-252-R-J1-PDC, and 997726-040-R-J2-PDC lines were cultured in 6A media, which includes advanced DMEM/F-12 (Thermo Fisher Scientific, cat. 12634028), 10 mM HEPES (Thermo Fisher Scientific, cat. 15630080), 1X GlutaMAX supplement (Thermo Fisher Scientific, cat. 35050061), 0.1 mg/mL primocin (InvivoGen, San Diego, CA, cat. ant-pm-2), 10% defined fetal bovine serum, heat inactivated (HyClone Laboratories Inc., Logan, UT, cat. SH30070.03HI), 50% L-WRN conditioned media (ATCC, cat. CRL-3276), 1.25 mM N-Acetyl-L-cysteine (Sigma-Aldrich, cat. A9165), 10 mM nicotinamide (Sigma-Aldrich, cat. N0636), 1X B-27 supplement (Thermo Fisher Scientific, cat. 17504044), 1X N-2 supplement (Thermo Fisher Scientific, cat. 17502048), and 10 microM Y-27632 dihydrochloride (Tocris Bioscience, Bristol, United Kingdom, cat. 1254). The 624824-186-R-J2-PDC line was cultured in 6C/Colon 1B media, which includes all 6A media components plus 50 ng/mL human EGF recombinant protein (Thermo Fisher Scientific, cat. PHG0311). […]
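Note: spheroids exposed to agents for seven days before reading.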
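Throughout, for viability, T/C: percent of vehicle control luminescence where 100% = DMSO treated spheroids.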

Row | Compound | viability, T/C (compound 0.0316 µM) | viability, T/C (compound 0.316 µM) | viability, T/C (compound 1 µM) | viability, T/C (compound 3.16 µM) | viability, T/C (compound 10 µM) | IC50 | viability, T/C (compound 0.1 µM)
1 | C#Cc1c(F)ccc2cc(O)cc(-c3ncc4c(N5CC6CCC(C5)N6)nc(OCC56CCCN5CC(F)C6)nc4c3F)c12 (centres undefined) | 105% [middle of 4 runs] | 111% and 104% (2×) and 105% | 104% [middle of 4 runs] | 107% [middle of 4 runs] | 108% and 105% (2×) and 101% | > 10 µM | 
2 | C=CC(=O)N1CCN(c2nc(=O)n(-c3c(C)ccnc3C(C)C)c3nc(-c4c(O)cccc4F)c(F)cc23)C(C)C1 (centres undefined) | 112% [middle of 4 runs] | 110% and 107% (2×) and 100% | 109% [middle of 4 runs] | 105% [middle of 4 runs] | 96% [middle of 4 runs] | > 10 µM | 103% (2×) and 102% and 99.5%
3 | Cn1ncc(Cl)c1-c1cc(C(=O)NC(CN)Cc2cccc(F)c2)sc1Cl (centres undefined) | 111% [middle of 4 runs] | 72.9% [middle of 4 runs] | 35.3% [middle of 4 runs] | 25% [middle of 4 runs] |  | 818 nM [middle of 4 runs] | 86.8% [middle of 4 runs]
